According to article PMC8890542, “Discovery of novel paeonol-based derivatives against skin inflammation in vitro and in vivo” (Journal of Enzyme Inhibition and Medicinal Chemistry, 2022):

Key:
[1] = Cell viability assay (MTT), LO2; assay type: cell-based; settings: human, LO2 cells, read-out: Cytotoxicity IC50 with LO2
[2] = Cell viability assay (MTT), RAW264.7; assay type: cell-based, mouse; settings: mouse, RAW264.7 cells, read-out: Cytotoxicity IC50 with RAW264.7
Procedure: RAW264.7 cells (1 × 10^4 cells/well) were seeded into 96-well plate and used for experiments after 24 h. Compounds (4 µM, 20 µM and 100 µM) treated cell for 24 h. Forty microliters of MTT solution (5 mg/mL, Sigma-Aldrich) was then added and incubated for an additional 4 h. After 4 h, cell culture supernatants were removed and DMSO (150 µL) was added into per well for dissolving the resulting crystals. Shaking about 1 0 ∼ 15 min and the absorbance at 492 nm was measured by a microplate reader (MQX200, Bio-Tek, Winooski, VT). At least three independent experiments were performed for the determination of IC50 values, which were shown as mean ± SD. All experimental data were analysed by using GraphPad Prism software, version 8.0 (GraphPad Inc.).

[3] = tested on: LPS-induced nitric oxide production in RAW264.7 cells; assay: LPS-induced NO production, Griess Reagent assay; assay type: cell-based, mouse; settings: for IC50 / inhibition at 10 µM: Mus musculus; for IC50: LPS (0.5 μg/mL) 24 h; for inhibition at 10 µM: compounds 10 μM, 1 h, then LPS (0.5 μg/mL) 24 h, read-out: Inhibition rate±SD (%) against NO production; for Inhibitory activity on LPS-induced NO secretion, in words: 10 µM
Procedure: RAW264.7 cells (7 × 10^4 cells/well) were seeded into 48-well plate and used for experiments after 24 h. […] After 24 h collect cell supernatant, NO production was measured using Griess Reagent assay (Beyotime). Griess reagent were mixed at a ratio of 1:1, and reacted at room temperature for 15 min. Measurement of absorbance at […] with enzyme reader. At least three independent experiments were performed for the determination of IC50 values, which were shown as mean ± SD. All experimental data were analysed by using GraphPad Prism software, version 8.0 (GraphPad Inc.).

Cc1ccc(-c2cc(C(F)(F)F)nn2-c2ccc(S(N)(=O)=O)cc2)cc1 [Cel, Celecoxib, reference compound]
IC50 at 24 h [1]: > 100 µM | IC50 at 24 h [2]: > 100 µM | IC50 [3]: > 10 µM | inhibition at 10 µM [3]: 30.1 ± 2.33%

CNC(=O)Nc1cc(C(C)=O)c(O)cc1OC [Compound A1, 1–(5-acetyl-4-hydroxy-2-methoxyphenyl)-3-methylurea]
IC50 at 24 h [1]: > 100 µM | IC50 at 24 h [2]: > 100 µM | IC50 [3]: > 10 µM | inhibition at 10 µM [3]: 20.1 ± 6.12% | melting point: 211 to 213 °C

CCN(CC)C(=O)Nc1cc(C(C)=O)c(O)cc1OC [Compound A2, 3–(5-acetyl-4-hydroxy-2-methoxyphenyl)-1,1-diethylurea]
IC50 at 24 h [1]: > 100 µM | IC50 at 24 h [2]: > 100 µM | IC50 [3]: > 10 µM | inhibition at 10 µM [3]: 30.2 ± 4.89% | melting point: 132 to 134 °C

COc1cc(O)c(C(C)=O)cc1NC(=O)N(C(C)C)C(C)C [Compound A3, 3–(5-acetyl-4-hydroxy-2-methoxyphenyl)-1,1-diisopropylurea]
IC50 at 24 h [1]: > 100 µM | IC50 at 24 h [2]: > 100 µM | IC50 [3]: > 10 µM | inhibition at 10 µM [3]: 15.4 ± 3.15% | melting point: 148 to 149 °C

CONC(=O)Nc1cc(C(C)=O)c(O)cc1OC [Compound A4, 1–(5-acetyl-4-hydroxy-2-methoxyphenyl)-3-methoxyurea]
IC50 at 24 h [1]: > 100 µM | IC50 at 24 h [2]: > 100 µM | IC50 [3]: > 10 µM | inhibition at 10 µM [3]: 15.2 ± 4.18% | melting point: 176 to 177 °C

COc1cc(O)c(C(C)=O)cc1NC(=O)NCC(F)(F)F [Compound A5, 1–(5-acetyl-4-hydroxy-2-methoxyphenyl)-3–(2,2,2-trifluoroethyl) urea]
IC50 at 24 h [1]: > 100 µM | IC50 at 24 h [2]: > 100 µM | IC50 [3]: > 10 µM | inhibition at 10 µM [3]: 23.1 ± 3.25% | melting point: 232 to 234 °C

CCNC(=O)Nc1cc(C(C)=O)c(O)cc1OC [Compound A6, 1–(5-acetyl-4-hydroxy-2-methoxyphenyl)-3-ethylurea]
IC50 at 24 h [1]: > 100 µM | IC50 at 24 h [2]: > 100 µM | IC50 [3]: > 10 µM | inhibition at 10 µM [3]: 16.2 ± 6.01% | melting point: 211 to 212 °C

COc1cc(O)c(C(C)=O)cc1NC(=O)N(C)C [Compound A7, 3–(5-acetyl-4-hydroxy-2-methoxyphenyl)-1,1-dimethylurea]
IC50 at 24 h [1]: > 100 µM | IC50 at 24 h [2]: > 100 µM | IC50 [3]: > 10 µM | inhibition at 10 µM [3]: 33.7 ± 5.02% | melting point: 176 to 177 °C

COc1cc(O)c(C(C)=O)cc1NC(=O)NC(C)(C)C [Compound A8, 1–(5-acetyl-4-hydroxy-2-methoxyphenyl)-3-(tert-butyl) urea]
IC50 at 24 h [1]: > 100 µM | IC50 at 24 h [2]: > 100 µM | IC50 [3]: > 10 µM | inhibition at 10 µM [3]: 12.3 ± 4.12%

COc1cc(O)c(C(C)=O)cc1NC(=O)NC1CC1 [Compound A9, 1–(5-acetyl-4-hydroxy-2-methoxyphenyl)-3-cyclopropylurea]
IC50 at 24 h [1]: > 100 µM | IC50 at 24 h [2]: > 100 µM | IC50 [3]: > 10 µM | inhibition at 10 µM [3]: 41 ± 3.15% | melting point: 191 to 192 °C

COc1cc(O)c(C(C)=O)cc1NC(=O)N1CCN(C)CC1 [Compound A10, N-(5-acetyl-4-hydroxy-2-methoxyphenyl)-4-methylpiperazine-1-carboxamide]
IC50 at 24 h [1]: > 100 µM | IC50 at 24 h [2]: > 100 µM | IC50 [3]: > 10 µM | inhibition at 10 µM [3]: 26 ± 5.12% | melting point: 141 to 142 °C

COc1cc(O)c(C(C)=O)cc1NC(=O)N1CCOCC1 [Compound A11, N-(5-acetyl-4-hydroxy-2-methoxyphenyl) morpholine-4-carboxamide]
IC50 at 24 h [1]: > 100 µM | IC50 at 24 h [2]: > 100 µM | IC50 [3]: > 10 µM | inhibition at 10 µM [3]: 29.8 ± 3.74% | melting point: 220 to 221 °C

COc1cc(O)c(C(C)=O)cc1NC(=O)N1CCCC1 [Compound A12, N-(5-acetyl-4-hydroxy-2-methoxyphenyl) pyrrolidine-1-carboxamide]
IC50 at 24 h [1]: > 100 µM | IC50 at 24 h [2]: > 100 µM | IC50 [3]: > 10 µM | inhibition at 10 µM [3]: 32.1 ± 4.17% | melting point: 118 to 120 °C

CCN1CCN(C(=O)Nc2cc(C(C)=O)c(O)cc2OC)CC1 [Compound A13, N-(5-acetyl-4-hydroxy-2-methoxyphenyl)-4-ethylpiperazine-1-carboxamide]
IC50 at 24 h [1]: > 100 µM | IC50 at 24 h [2]: > 100 µM | IC50 [3]: > 10 µM | inhibition at 10 µM [3]: 35.1 ± 2.87% | melting point: 125 to 126 °C

COc1cc(O)c(C(C)=O)cc1NC(=O)N1CCSC1 [Compound A14, N-(5-acetyl-4-hydroxy-2-methoxyphenyl) thiazolidine-3-carboxamide]
IC50 at 24 h [1]: > 100 µM | IC50 at 24 h [2]: > 100 µM | IC50 [3]: > 10 µM | inhibition at 10 µM [3]: 24.1 ± 5.16% | melting point: 172 to 174 °C

COc1cc(O)c(C(C)=O)cc1NC(=O)Nc1ccccc1 [Compound B1, 1–(5-acetyl-4-hydroxy-2-methoxyphenyl)-3-phenylurea]
IC50 at 24 h [1]: > 100 µM | IC50 at 24 h [2]: > 100 µM | IC50 [3]: 9.45 µM | inhibition at 10 µM [3]: 51 ± 3.25%

COc1cc(O)c(C(C)=O)cc1NC(=O)Nc1cccc(C)c1 [Compound B2, 1–(5-acetyl-4-hydroxy-2-methoxyphenyl)-3-(m-tolyl) urea]
IC50 at 24 h [1]: > 100 µM | IC50 at 24 h [2]: > 100 µM | IC50 [3]: > 10 µM | inhibition at 10 µM [3]: 48.7 ± 5.49% | melting point: 209 to 210 °C

COc1cc(O)c(C(C)=O)cc1NC(=O)Nc1ccccc1C [Compound B3, 1–(5-acetyl-4-hydroxy-2-methoxyphenyl)-3-(o-tolyl) urea]
IC50 at 24 h [1]: > 100 µM | IC50 at 24 h [2]: > 100 µM | Inhibitory activity on LPS-induced NO secretion, in words [3]: weak to moderate inhibitory activity | IC50 [3]: > 10 µM | inhibition at 10 µM [3]: 47.2 ± 6.12% | melting point: 238 to 239 °C

COc1cc(O)c(C(C)=O)cc1NC(=O)Nc1ccc(C)cc1 [Compound B4, 1–(5-acetyl-4-hydroxy-2-methoxyphenyl)-3-(p-tolyl) urea]
IC50 at 24 h [1]: > 100 µM | IC50 at 24 h [2]: > 100 µM | Inhibitory activity on LPS-induced NO secretion, in words [3]: moderate inhibitory activity | IC50 [3]: 8.76 µM | inhibition at 10 µM [3]: 53.9 ± 4.12% | melting point: 218 to 219 °C

COc1cc(O)c(C(C)=O)cc1NC(=O)Nc1cccc(F)c1 [Compound B5, 1–(5-acetyl-4-hydroxy-2-methoxyphenyl)-3–(3-fluorophenyl) urea]
IC50 at 24 h [1]: > 100 µM | IC50 at 24 h [2]: > 100 µM | IC50 [3]: 6.22 µM | inhibition at 10 µM [3]: 63 ± 3.87%

COc1cccc(NC(=O)Nc2cc(C(C)=O)c(O)cc2OC)c1 [Compound B8, 1–(5-acetyl-4-hydroxy-2-methoxyphenyl)-3–(3-methoxyphenyl) urea]
IC50 at 24 h [1]: > 100 µM | IC50 at 24 h [2]: > 100 µM | IC50 [3]: 4.7 µM | inhibition at 10 µM [3]: 74.7 ± 6.15%

COc1ccccc1NC(=O)Nc1cc(C(C)=O)c(O)cc1OC [Compound B9, 1–(5-acetyl-4-hydroxy-2-methoxyphenyl)-3–(2-methoxyphenyl) urea]
IC50 at 24 h [1]: > 100 µM | IC50 at 24 h [2]: > 100 µM | Inhibitory activity on LPS-induced NO secretion, in words [3]: weak to moderate inhibitory activity | IC50 [3]: 6.88 µM | inhibition at 10 µM [3]: 56.7 ± 4.28% | melting point: 228 to 229 °C

COc1cc(O)c(C(C)=O)cc1NC(=O)Nc1ccc(C(F)(F)F)cc1 [Compound B11, 1–(5-acetyl-4-hydroxy-2-methoxyphenyl)-3–(4-(trifluoromethyl)phenyl) urea]
IC50 at 24 h [1]: > 100 µM | IC50 at 24 h [2]: > 100 µM | IC50 [3]: 5.08 µM | inhibition at 10 µM [3]: 60.9 ± 4.12%

COc1cc(O)c(C(C)=O)cc1NC(=O)Nc1ccc(OC(F)(F)F)cc1 [Compound B13, 1–(5-acetyl-4-hydroxy-2-methoxyphenyl)-3–(4-(trifluoromethoxy)phenyl) urea]
IC50 at 24 h [1]: > 100 µM | IC50 at 24 h [2]: > 100 µM | IC50 [3]: > 10 µM | inhibition at 10 µM [3]: 25.1 ± 4.18% | melting point: 209 to 210 °C

COc1cc(O)c(C(C)=O)cc1NC(=O)NCc1ccccc1Cl [Compound C1, 1–(5-acetyl-4-hydroxy-2-methoxyphenyl)-3–(2-chlorobenzyl) urea]
IC50 at 24 h [1]: > 100 µM | IC50 at 24 h [2]: > 100 µM | IC50 [3]: > 10 µM | inhibition at 10 µM [3]: 33.7 ± 6.15%

COc1ccccc1CNC(=O)Nc1cc(C(C)=O)c(O)cc1OC [Compound C6, 1–(5-acetyl-4-hydroxy-2-methoxyphenyl)-3–(2-methoxybenzyl) urea]
IC50 at 24 h [1]: > 100 µM | IC50 at 24 h [2]: > 100 µM | IC50 [3]: > 10 µM | inhibition at 10 µM [3]: 8.12 ± 6.12%

COc1cc(O)c(C(C)=O)cc1NC(=O)NCCc1ccccc1 [Compound D1, 1–(5-acetyl-4-hydroxy-2-methoxyphenyl)-3-phenethylurea]
IC50 at 24 h [1]: > 100 µM | IC50 at 24 h [2]: > 100 µM | IC50 [3]: > 10 µM | inhibition at 10 µM [3]: 15.3 ± 5.12%

COc1cc(O)c(C(C)=O)cc1NC(=O)NCCc1ccccc1F [Compound D4, 1–(5-acetyl-4-hydroxy-2-methoxyphenyl)-3–(2-fluorophenethyl)urea]
IC50 at 24 h [1]: > 100 µM | IC50 at 24 h [2]: > 100 µM | IC50 [3]: > 10 µM | inhibition at 10 µM [3]: 17.7 ± 2.15%
